# Data: patent US8759480B2, “Contoxin analogues and methods for synthesis of intramolecular dicarba bridge-containing peptides” (Syngene Limited, priority 2006, dated 2014)
# “And” between values parts separate entries of the source, which are not always exact repeats. Equal values may be shown once.
# How the values were obtained:
# [1] = test system: neuronal-type nicotinic receptors; details: cited from earlier work
# [2] = test system: neuronal-type nicotinic receptors; type: cell-based, bovine
Compound,effect on nicotine-stimulated release of adrenaline and noradrenaline (in words) [1],Adrenaline Release 1st [2],Adrenaline Release 2nd [2],Adrenaline Release 3rd [2],Adrenaline Release 4th [2],Adrenaline Release % control [2],Adrenaline Release mean [2],Noradrenaline Release 1st [2],Noradrenaline Release 2nd [2],Noradrenaline Release 3rd [2],Noradrenaline Release 4th [2],Noradrenaline Release % control [2],Noradrenaline Release mean [2]
"C[C@@H]1NC(=O)[C@@H]2CSC3(SC[C@@H](C(N)=O)NC(=O)[C@H](CCCNC(=N)N)NC(=O)[C@H](Cc4cc5ccccc5[nH]4)NC1=O)SC[C@H](NC(=O)CN)C(=O)N[C@@H](CS3)C(=O)N[C@@H](CO)C(=O)N[C@@H](CC(=O)O)C(=O)N1CCCC1C(=O)N[C@@H](CCCNC(=N)N)C(=O)N2 (stereo partly drawn) [Ctx ImI, α-conotoxin ImI]",inhibit the nicotine-stimulated release,,,,,,,,,,,,
"C[C@@H]1NC(=O)[C@@H]2CCCC[C@H](NC(=O)CN)C(=O)N[C@@H](CSSC[C@@H](C(N)=O)NC(=O)[C@H](CCCNC(=N)N)NC(=O)[C@H](Cc3cc4ccccc4[nH]3)NC1=O)C(=O)N[C@@H](CO)C(=O)N[C@@H](CC(=O)O)C(=O)N1CCCC1C(=O)N[C@@H](CCCNC(=N)N)C(=O)N2 (stereo partly drawn) [compound 118, [2,8]-Dicarba-[3,12]-Cystino Conotoxin ImI: NH2-Gly-c[Hag-Cys-Ser-Asp-Pro-Arg-Hag]-Ala-Trp-Arg-Cys)-NH2]",,2.94% and 2.55%,4.40% and 3.63%,4.46% and 2.62%,4.09% and 3.31%,88.260% and 65.306%,3.97% and 3.03%,4.52% and 4.19%,6.29% and 5.86%,7.00% and 4.32%,7.34% and 5.51%,90.859% and 69.384%,6.29% and 4.97%
